From patent US7402388B2, “Expression analysis of FKBP54 in assessing prostate cancer therapy” (Wyeth, priority 2000, dated 2008)
Where two headings read alike, the source gives them in different places.

B1: FKBP54: member of the immunophilin family, FK binding protein; transfected as expression vector encoding FKBP54 (protein, UniProt Q13451 1-457, looked up)
Peptidyl-prolyl cis-trans …: MTTDEGAKNNEESPTATVAEQGEDITSKKDRGVLKIVKRVGNGEETPMIGDKVYVHYKGKLSNGKKFDSSHDRNEPFVFSLGKGQVIKAWDIGVATMKKGEICHLLCKPEYAYGSAGSLPKIPSNATLFFEIELLDFKGEDLFEDGGIIRRTKRKGEGYSNPNEGATVEIHLEGRCGGRMFDCRDVAFTVGEGEDHDIPIGIDKALEKMQREEQCILYLGPRYGFGEAGKPKFGIEPNAELIYEVTLKSFEKAKESWEMDTKEKLEQAAIVKEKGTVYFKGGKYMQAVIQYGKIVSWLEMEYGLSEKESKASESFLLAAFLNLAMCYLKLREYTKAVECCDKALGLDSANEKGLYRRGEAQLLMNEFESAKGDFEKVLEVNPQNKAARLQISMCQKKAKEHNERDRRIYANMFKKFAEQDAKEEANKAMGKKTSEGVTNEKGTDSQAMEEEKPEGHV

Experiments:
[1] = tested on: prostate cancer cells; experiment: Sensitivity of prostate cancer cells to CCI-779; assay type: cell-based; conditions: some prostate cancer cells, data not shown
[2] = tested on: FKBP54; experiment: Western blot analysis of FKBP54 protein in LNCaP cells; assay type: cell-based, human
Experimental: For Western blot analysis, LNCaP cells were plated in 6-well plate at 1×10^6 cells/well in charcoal stripped serum containing medium. Cells were treated with 10 nM DHT and harvested at designated time. Cells were harvested in MPER reagent (Pierce, Rockford, Ill.) containing 400 mM NaCl. […] The PVDF membrane was incubated in TBST (TBS with 0.1% Tween-20) with 3% milk for 15 minutes before the addition of the first antibody, rabbit anti-FKBP54 (Affinity Bioreagents, Inc). After overnight incubation, the PVDF membrane was washed 3 times with TBST and incubated with a second antibody, anti-rabbit-IgG coupled with horseradish peroxidase (Transduction Labs) for one hour. The PVDF membrane was then washed 3 times with TBST and protein was detected by using an enhanced chemiluminescence detection system (Pierce).

[3] = tested on: PSA
[4] = tested on: FKBP54; conditions: LNCaP cells, 10 nM DHT, mRNA frequency
Experimental: (§1) Human prostatic cancer cell lines LNCaP, DU-145, PC-3, and Tsu-prl were obtained from ATCC. LNCaP cancer cells were maintained in humidified atmosphere of 5% CO2 in air in RPMI 1640 medium supplemented with 10% fetal calf serum (Life Technologies, Inc, Rockville, Md.), 3 mM L-glutamine, 100 μg/ml streptomycin and 100 units/ml penicillin. Other lines were maintained in DMEM containing 3 mM L-glutamine, 100 μg/ml streptomycin, 100 units/ml penicillin, and 10% FCS in humidified atmosphere of 5% CO2. To examine the effects of steroids, cells were cultured in RPMI 1640 medium containing 5% FCS treated with dextran coated charcoal (Hyclone, Logan, Utah) for 24 hs before treatment. Cells were grown in the absence or presence of 10 nM DHT for 0, 2, 4, 6, 12, 24, 48, and 72 hs. They were collected and frozen at each time point. Two hundred μl of medium were collected from each flask for PSA assay.

[5] = tested on: PSA; conditions: LNCaP cells, 10 nM DHT, mRNA frequency
[6] = tested on: LNCaP cells; conditions: MTT assay, FIG. 1A
Experimental: as §1
To verify the effect of DHT on the growth of LNCaP cells, cells at 3,000 cells/well were plated in 96-well plates for 24 hs before treatment with DHT. After 72 hs, MTT was added to each well and incubated at 37° C. for four hs. At the end of incubation, the supernatant was removed and 100 μl DMSO was added to each well to dissolve […]. Plates were subsequently read in a plate reader at […].

[7] = tested on: androgen receptor (AR); experiment: Transient transfection of COS-1 cells, GREe1bLuc luciferase reporter of AR transcriptional activity; assay type: cell-based; conditions: COS-1 cells transfected with FKBP54 expression vector
Experimental: Bars represent the mean of at least three independent experiments±SD. To determine the effect of FKBP54 on the transcriptional activity of androgen receptor (AR), COS-1 cells were transiently transfected with a reporter construct containing androgen receptor response element along with an expression vector encoding FKBP54. […] The next morning, medium were replaced with 2-ml DMEM. Indicated amount of DNA in 100 μl of DMEM was mixed with 6 μl of PLUS reagent (Gibco) and incubated at room temperature while 4 μl of lipofectamine was mixed with 100 μl of DMEM. […] After incubation with DNA for 4 hours, 2 ml of phenol red-free DMEM containing 10% charcoal-stripped fetal bovine serum was added and cells treated with indicated chemicals for additional 24 hours before being harvested. Luciferase activity was determined using Promega's STEADY GLO™ Luciferase Assay System.

Molecule | FKBP54 protein expression (Western blot, blot not shown) [2] | increase in level of FKBP54 expression ([2]; 24 hours post exposure) | increase in level of FKBP54 expression ([2]; 72 hours post exposure) | Quantitative Expression Levels of FKBP54 (band density values) ([2]; time 0 hr) | Quantitative Expression Levels of FKBP54 (band density values) ([2]; time 2 hr) | Quantitative Expression Levels of FKBP54 (band density values) ([2]; time 6 hr) | Quantitative Expression Levels of FKBP54 (band density values) ([2]; time 12 hr) | Quantitative Expression Levels of FKBP54 (band density values) ([2]; time 24 hr) | Quantitative Expression Levels of FKBP54 (band density values) ([2]; time 48 hr) | Quantitative Expression Levels of FKBP54 (band density values) ([2]; time 72 hr) | further results
CO[C@H]1C[C@@H]2CC[C@@H](C)[C@@](O)(O2)C(=O)C(=O)N2CCCC[C@H]2C(=O)O[C@H]([C@H](C)C[C@@H]2CC[C@@H](OC(=O)C(C)(CO)CO)[C@H](OC)C2)CC(=O)[C@H](C)/C=C(\C)[C@@H](O)[C@@H](OC)C(=O)[C@H](C)C[C@H](C)/C=C/C=C/C=C/1C [CCI-779] |  |  |  |  |  |  |  |  |  |  | sensitivity of prostate cancer cells [1]: sensitive
C[C@]12CCC(=O)C[C@@H]1CC[C@@H]1[C@@H]2CC[C@]2(C)[C@@H](O)CC[C@@H]12 [DHT, dihydrotestosterone] | upregulated the FKB54 expression in a time-dependent manner | approximately two-fold | approximately 4 fold | 8.5 | 9.0 | 9.8 | 8.0 | 12.0 | 23.0 | 30.2 | PSA production [3]: increased in a dose-dependent manner; time at which PSA signal was first detected [3]: 12 h; time of maximal PSA level [3]: about 48 hs; FKBP54 expression induction relative to baseline ([4]; 6 hours): 2 fold; FKBP54 expression induction relative to baseline (peak) ([4]; 24 hours): approximately 4 fold; PSA expression increase relative to control ([5]; 12 hours): 3 fold; PSA expression increase relative to control ([5]; 72 hours): approximately 4 fold; growth of LNCaP cells [6]: stimulated by a natural androgen DHT in a dose-dependent manner
C[C@]1(O)CC[C@H]2[C@@H]3CCC4=CC(=O)CCC4=C3C=C[C@@]21C [R1881] | could also upregulate the FKBP54 expression | ~10 fold | approximately 30 fold | 1.8 | 5.3 | 5.9 | 5.0 | 20.1 | 27.2 | 34.4 | 
B1 |  |  |  |  |  |  |  |  |  |  | increase of AR activity ([7]; in the presence of androgen (10^-9 M R1881)): more than 30%; effect on the reporter activity ([7]; without androgen): no effect
